Measured values as given in patent publication US4156724A, “N-acylamino-alpha-arylacetamido cephalosporins and antibacterial compositions and methods containing them” (Sumitomo Chemical Company, Limited, priority 1974, dated 1979).
≈ marks a conversion by molar mass, not a printed value. Read-outs that look alike come from different tables or passages of the source.

Key:
Format in all cases: cell-based
Proteus vulgaris HX 19 = test: Minimum Inhibitory Concentration, Proteus vulgaris HX 19; details: HX19; Proteus vulgaris HX 19; read-out: Minimum Inhibitory Concentration
Description: (§1) anti-microbial activity tests were carried out on the compounds obtained in the Examples.

Escherichia coli NIHJ = test: Minimum Inhibitory Concentration, Escherichia coli NIHJ; details: read-out: Minimum Inhibitory Concentration
Description: as §1

[1] = test system: Klebsiella pneumoniae 602; test: Minimum Inhibitory Concentration, Klebsiella pneumoniae 602
Description: as §1

[2] = test system: Staphylococcus aureus 209 P; test: Minimum Inhibitory Concentration, Staphylococcus aureus 209 P; details: Staphylococcus aureus 209 P; read-out: Minimum Inhibitory Concentration
Description: as §1

[3] = test system: Enterobacter aerogeneus No. 75; test: Minimum Inhibitory Concentration, Enterobacter aerogeneus No. 75; details: Enterobacter aerogeneus No. 75; read-out: Minimum Inhibitory Concentration
Description: as §1

Serratia No. 72 = test: Minimum Inhibitory Concentration, Serratia No. 72
Description: as §1

[4] = test system: Pseudomonas aeruginosa 104; test: Minimum Inhibitory Concentration, Pseudomonas aeruginosa 104; details: Pseudomonas aeruginosa 104; read-out: Minimum Inhibitory Concentration
Description: as §1

[5] = test system: Staphylococcus aureus FS 289; test: Minimum Inhibitory Concentration, Staphylococcus aureus FS 289; details: FS289; Staphylococcus aureus FS 289, strain resistant to penicillin; read-out: Minimum Inhibitory Concentration
Description: as §1
*Staphylococcus aureus FS 289: strain resistant to penicillin

[6] = Klebsiella pneumoniae, 602, Klebsiella pneumoniae 602, read-out: Minimum Inhibitory Concentration

Row | MIC (Proteus vulgaris HX 19) [µg/mL] | MIC (Escherichia coli NIHJ; Escherichia coli NIHJ) [µg/mL] | MIC [1, 6] [µg/mL] | MIC [2] [µg/mL] | MIC [3] [µg/mL] | MIC (Serratia No. 72) [µg/mL] | MIC [4] [µg/mL] | MIC [5] [µg/mL] | Compound | MIC (Escherichia coli NIHJ; Escherichia coli) [µg/mL] | MIC ([1]; Klebsiella pneumoniae, 602, read-out: Minimum Inhibitory Concentration) [µg/mL]
1 | 0.78 (≈ 1.1 µM) | 6.25 (≈ 8.79 µM) | 6.25 (≈ 8.79 µM) | 1.56 (≈ 2.19 µM) | 12.5 (≈ 17.6 µM) | 50 (≈ 70.3 µM) | 12.5 (≈ 17.6 µM) | 12.5 (≈ 17.6 µM) | CSc1ncc2c(O)c(C(=O)NC(C(=O)NC3C(=O)N4C(C(=O)O)=C(CSc5nnnn5C)CSC34)c3ccc(CO)cc3)cnc2n1 (stereo not shown) [Example 109] | – | –
2 | 0.39 (≈ 0.605 µM) | 12.5 (≈ 19.4 µM) | 12.5 (≈ 19.4 µM) | 0.78 (≈ 1.21 µM) | 25 (≈ 38.8 µM) | 100 (≈ 155 µM) | 12.5 (≈ 19.4 µM) | 6.25 (≈ 9.69 µM) | O=C(O)C1=C(CSc2nnc(CO)s2)CSC2C(NC(=O)C(NC(=O)c3cnccc3O)c3ccc(CO)cc3)C(=O)N12 (stereo not shown) [Example 110] | – | –
3 | 0.39 (≈ 0.624 µM) | 12.5 (≈ 20 µM) | 6.25 (≈ 10 µM) | 0.78 (≈ 1.25 µM) | 12.5 (≈ 20 µM) | 100 (≈ 160 µM) | 12.5 (≈ 20 µM) | 6.25 (≈ 10 µM) | O=C(O)C1=C(CSc2ccc(O)nn2)CSC2C(NC(=O)C(NC(=O)c3cnccc3O)c3ccc(CO)cc3)C(=O)N12 (stereo not shown) [Example 111] | – | –
4 | 0.78 (≈ 1.27 µM) | 12.5 (≈ 20.4 µM) | 6.25 (≈ 10.2 µM) | 0.78 (≈ 1.27 µM) | 25 (≈ 40.8 µM) | 100 (≈ 163 µM) | 12.5 (≈ 20.4 µM) | 12.5 (≈ 20.4 µM) | Cn1nnnc1SCC1=C(C(=O)O)N2C(=O)C(NC(=O)C(NC(=O)c3cccnc3O)c3ccc(CO)cc3)C2SC1 (stereo not shown) [Example 112] | – | –
5 | 0.2 (≈ 0.369 µM) | 12.5 (≈ 23 µM) | 12.5 (≈ 23 µM) | 0.39 (≈ 0.719 µM) | 25 (≈ 46.1 µM) | > 200 | 6.25 (≈ 11.5 µM) | 3.13 (≈ 5.77 µM) | CC(=O)OCC1=C(C(=O)O)N2C(=O)C(NC(=O)[C@H](NC(=O)c3cnccc3O)c3ccc(O)cc3)C2SC1 (stereo partly drawn) [Example 113, 7-[D-α-(4-Hydroxypyridine-3-carbonamido)-α-p-hydroxyphenylacetamido]cephalosporanic Acid] | – | –
6 | 0.39 (≈ 0.719 µM) | 12.5 (≈ 23 µM) | 12.5 (≈ 23 µM) | 0.39 (≈ 0.719 µM) | 25 (≈ 46.1 µM) | > 200 | 6.25 (≈ 11.5 µM) | 6.25 (≈ 11.5 µM) | CC(=O)OCC1=C(C(=O)O)N2C(=O)C(NC(=O)C(NC(=O)c3cnccc3O)c3cccc(O)c3)C2SC1 (stereo not shown) [Example 114] | – | –
7 | 0.78 (≈ 1.44 µM) | 12.5 (≈ 23 µM) | 25 (≈ 46.1 µM) | 0.39 (≈ 0.719 µM) | 25 (≈ 46.1 µM) | > 200 | 12.5 (≈ 23 µM) | 6.25 (≈ 11.5 µM) | CC(=O)OCC1=C(C(=O)O)N2C(=O)C(NC(=O)C(NC(=O)c3cccnc3O)c3ccc(O)cc3)C2SC1 (stereo not shown) [Example 115] | – | –
8 | 0.2 (≈ 0.368 µM) | 12.5 (≈ 23 µM) | 6.25 (≈ 11.5 µM) | 0.39 (≈ 0.718 µM) | 25 (≈ 46 µM) | > 200 | 6.25 (≈ 11.5 µM) | 3.13 (≈ 5.76 µM) | CC(=O)OCC1=C(C(=O)O)N2C(=O)C(NC(=O)[C@H](NC(=O)c3ccnnc3O)c3ccc(O)cc3)C2SC1 (stereo partly shown) [Example 116] | – | –
9 | 0.2 (≈ 0.347 µM) | 12.5 (≈ 21.7 µM) | 12.5 (≈ 21.7 µM) | 0.39 (≈ 0.676 µM) | 25 (≈ 43.3 µM) | 100 (≈ 173 µM) | 6.25 (≈ 10.8 µM) | 6.25 (≈ 10.8 µM) | CC(=O)OCC1=C(C(=O)O)N2C(=O)C(NC(=O)[C@H](NC(=O)c3cnccc3O)c3ccc(O)c(Cl)c3)C2SC1 (stereo partly shown) [Example 117] | – | –
10 | 0.39 (≈ 0.718 µM) | 12.5 (≈ 23 µM) | 25 (≈ 46 µM) | 0.39 (≈ 0.718 µM) | 25 (≈ 46 µM) | > 200 | 6.25 (≈ 11.5 µM) | 6.25 (≈ 11.5 µM) | CC(=O)OCC1=C(C(=O)O)N2C(=O)C(NC(=O)[C@H](NC(=O)c3cncnc3O)c3ccc(O)cc3)C2SC1 (stereo partly shown) [Example 118] | – | –
11 | 0.39 (≈ 0.697 µM) | 6.25 (≈ 11.2 µM) | 25 (≈ 44.7 µM) | 0.39 (≈ 0.697 µM) | 25 (≈ 44.7 µM) | > 200 | 6.25 (≈ 11.2 µM) | 6.25 (≈ 11.2 µM) | CC(=O)OCC1=C(C(=O)O)N2C(=O)C(NC(=O)[C@H](NC(=O)c3cnc(O)nc3O)c3ccc(O)cc3)C2SC1 (stereo partly shown) [Example 119] | – | –
12 | 0.39 (≈ 0.621 µM) | 3.13 (≈ 4.98 µM) | 3.13 (≈ 4.98 µM) | 0.78 (≈ 1.24 µM) | 6.25 (≈ 9.95 µM) | 50 (≈ 79.6 µM) | 6.25 (≈ 9.95 µM) | 6.25 (≈ 9.95 µM) | CC(=O)OCC1=C(C(=O)O)N2C(=O)C(NC(=O)[C@H](NC(=O)c3cnc4cccnc4c3O)c3ccc(O)c(Cl)c3)C2SC1 (stereo partly shown) [Example 122] | – | –
13 | 0.78 (≈ 1.28 µM) | 6.25 (≈ 10.3 µM) | 3.13 (≈ 5.15 µM) | 0.78 (≈ 1.28 µM) | 12.5 (≈ 20.6 µM) | 100 (≈ 165 µM) | 6.25 (≈ 10.3 µM) | 6.25 (≈ 10.3 µM) | CC(=O)OCC1=C(C(=O)O)N2C(=O)C(NC(=O)[C@H](NC(=O)c3cnc4nc(C)ccc4c3O)c3ccc(O)cc3)C2SC1 (stereo partly shown) [Example 123] | – | –

Row | Compound | MIC (Proteus vulgaris HX 19) [µg/mL] | MIC (Escherichia coli NIHJ; Escherichia coli NIHJ) [µg/mL] | MIC [1, 6] [µg/mL] | MIC [2] [µg/mL] | MIC [3] [µg/mL] | MIC (Serratia No. 72) [µg/mL] | MIC [4] [µg/mL] | MIC [5] [µg/mL] | MIC (Escherichia coli NIHJ; Escherichia coli) [µg/mL] | MIC ([1]; Klebsiella pneumoniae, 602, read-out: Minimum Inhibitory Concentration) [µg/mL]
14 | CC(=O)OCC1=C(C(=O)O)N2C(=O)C(NC(=O)[C@H](NC(=O)c3cnc4cccnc4c3O)c3ccc(O)cc3)C2SC1 (stereo partly drawn) [Example 120, 7-[D-α-(4-Hydroxy-1,5-naphthyridine-3-carbonamido)-α-hydroxyphenylacetamido]cephalosporanic Acid] | 0.39 (≈ 0.657 µM) | – | – | 0.78 (≈ 1.31 µM) | 6.25 (≈ 10.5 µM) | 50 (≈ 84.2 µM) | 6.25 (≈ 10.5 µM) | 6.25 (≈ 10.5 µM) | 3.13 (≈ 5.27 µM) | 1.56 (≈ 2.63 µM)
